Test results published in ChEMBL document CHEMBL1201862, “PubChem BioAssay data set” (2004).
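A five-concentration, 48-hour dose response in 96-well plates underlies each endpoint, interpolated linearly between surrounding concentrations. At the GI50, growth is halved.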 Activity calls are given as the source filed them. Cut-off read from the data, not from the text of the source: active = GI50 up to about 1.1 µM and inactive = higher.

How the values were obtained:
Assay in all cases: NCI tumour cell line growth inhibition, 48 h
OVCAR-4 = test system: OVCAR-4
RXF 393 = test system: RXF 393
SN12C = test system: SN12C
HOP-62 = test system: HOP-62
SW-620 = test system: SW-620
UACC-62 = test system: UACC-62
Malme-3M = test system: Malme-3M
SK-MEL-5 = test system: SK-MEL-5
NCI-H522 = test system: NCI-H522
HL-60 = test system: HL-60
M14 = test system: M14
COLO 205 = test system: COLO 205
OVCAR-3 = test system: OVCAR-3
ACHN = test system: ACHN
SF-268 = test system: SF-268
786-0 = test system: 786-0
SK-MEL-2 = test system: SK-MEL-2

Measured: GI50

Cc1cccc(NC(=O)CC2C(=O)Nc3ccccc3S2(=O)=O)c1C (stereo unspecified)
inactive: OVCAR-4 16.5 µM | RXF 393 17.9 µM | SN12C 97.5 µM | HOP-62 22.6 µM | SW-620 28.2 µM | UACC-62 18.6 µM | Malme-3M 22.9 µM | SK-MEL-5 28.6 µM | NCI-H522 16.6 µM | HL-60 23.3 µM | M14 25.4 µM | COLO 205 > 100 µM | OVCAR-3 21.7 µM | ACHN 23.2 µM | SF-268 33.2 µM | 786-0 29 µM | SK-MEL-2 23.4 µM

O=C(OCc1ccccc1C1CSCSC1)c1cc(C(=O)OCc2ccccc2C2CSCSC2)c(C(=O)OCc2ccccc2C2CSCSC2)cc1C(=O)OCc1ccccc1C1CSCSC1
inactive: OVCAR-4 > 100 µM | RXF 393 > 100 µM | SN12C > 100 µM | HOP-62 > 100 µM | SW-620 > 100 µM | UACC-62 > 100 µM | Malme-3M > 100 µM | SK-MEL-5 > 100 µM | NCI-H522 > 100 µM | HL-60 > 100 µM | M14 > 100 µM | COLO 205 > 100 µM | OVCAR-3 > 100 µM | ACHN > 100 µM | SF-268 > 100 µM | 786-0 65 µM | SK-MEL-2 > 100 µM

OCC(O)C(O)C(O)C(O)c1nnn[nH]1 (stereo unspecified)
inactive: OVCAR-4 > 100 µM | SN12C > 100 µM | HOP-62 > 100 µM | SW-620 > 100 µM | UACC-62 > 100 µM | Malme-3M > 100 µM | SK-MEL-5 78.9 µM | NCI-H522 > 100 µM | HL-60 > 100 µM | M14 > 100 µM | COLO 205 > 100 µM | OVCAR-3 > 100 µM | ACHN > 100 µM | SF-268 > 100 µM | 786-0 > 100 µM | SK-MEL-2 > 100 µM

Cc1ccc(NC(=O)c2cc3cc(/N=N/c4ccccc4C(=O)O)ccc3oc2=O)cc1
inactive: RXF 393 51.4 µM | SN12C 54.6 µM | HOP-62 > 100 µM | SW-620 47.5 µM | UACC-62 24.6 µM | Malme-3M 43.2 µM | SK-MEL-5 28.5 µM | NCI-H522 30.1 µM | HL-60 26.7 µM | M14 55.3 µM | COLO 205 35.3 µM | OVCAR-3 25.2 µM | ACHN 53.2 µM | 786-0 94.6 µM

O=C(CSc1nnc(-c2ccc(/N=C\c3ccc(Cl)cc3)cc2)o1)Nc1ccc(Cl)cc1Cl
inactive: OVCAR-4 30.3 µM | RXF 393 68.7 µM | SN12C 24 µM | HOP-62 30.5 µM | SW-620 40.2 µM | UACC-62 28.7 µM | Malme-3M 21.5 µM | SK-MEL-5 33.3 µM | NCI-H522 27 µM | HL-60 33.9 µM | M14 16.4 µM | COLO 205 30.7 µM | ACHN 45.4 µM | SF-268 25.2 µM | 786-0 19.5 µM | SK-MEL-2 25.2 µM

N#Cc1ccccc1/C=N/O
inactive: OVCAR-4 > 100 µM | RXF 393 > 100 µM | SN12C > 100 µM | HOP-62 > 100 µM | SW-620 > 36.9 µM | UACC-62 > 100 µM | Malme-3M > 100 µM | SK-MEL-5 > 100 µM | NCI-H522 > 100 µM | HL-60 > 44.4 µM | M14 > 100 µM | COLO 205 > 49.7 µM | OVCAR-3 > 100 µM | ACHN > 60.3 µM | SF-268 > 100 µM | 786-0 > 76.7 µM

CC(O)C(C(=O)O)N(CC1(O)OCC(O)C(O)C1O)N=O (stereo unspecified)
inactive: RXF 393 > 100 µM | HOP-62 > 100 µM | SW-620 > 100 µM | UACC-62 > 100 µM | Malme-3M > 100 µM | NCI-H522 > 100 µM | HL-60 > 100 µM | M14 > 100 µM | COLO 205 > 100 µM | OVCAR-3 > 100 µM | ACHN > 100 µM | 786-0 > 100 µM | SK-MEL-2 > 100 µM

COc1cc(-c2nccc3cc(OC)c(OC)cc23)ccc1O
inactive: OVCAR-4 68.4 µM | SN12C 48.2 µM | HOP-62 > 100 µM | SW-620 55.2 µM | UACC-62 30 µM | Malme-3M > 100 µM | SK-MEL-5 32.6 µM | NCI-H522 35.8 µM | HL-60 17.7 µM | M14 45.9 µM | COLO 205 40.5 µM | OVCAR-3 49.3 µM | ACHN 44.9 µM | 786-0 78 µM | SK-MEL-2 > 100 µM

Brc1ccccc1C1SCc2nc3ccccc3n21 (stereo unspecified)
inactive: OVCAR-4 23.8 µM | RXF 393 9.33 µM | SN12C 12.8 µM | HOP-62 19 µM | SW-620 32.3 µM | UACC-62 > 10 µM | Malme-3M 18.8 µM | SK-MEL-5 6.34 µM | NCI-H522 13.2 µM | HL-60 6.71 µM | M14 17.2 µM | COLO 205 16.7 µM | OVCAR-3 13.5 µM | ACHN 16.4 µM | SF-268 20 µM | 786-0 14 µM | SK-MEL-2 15.5 µM

C#CCNC(=O)N(CC#C)N=O
inactive: OVCAR-4 > 100 µM | RXF 393 > 100 µM | SN12C > 100 µM | HOP-62 > 100 µM | SW-620 > 100 µM | UACC-62 > 100 µM | Malme-3M > 100 µM | SK-MEL-5 > 100 µM | NCI-H522 19.5 µM | HL-60 25.3 µM | M14 > 100 µM | OVCAR-3 > 100 µM | ACHN > 100 µM | SF-268 > 100 µM | 786-0 > 100 µM | SK-MEL-2 > 100 µM

COc1cc(Br)c(/C=N\c2cccc3ccc(OS(=O)(=O)c4ccc([N+](=O)[O-])cc4)cc23)cc1OC
inactive: OVCAR-4 > 100 µM | RXF 393 > 100 µM | SN12C > 100 µM | HOP-62 > 100 µM | SW-620 > 100 µM | UACC-62 29.4 µM | Malme-3M > 100 µM | SK-MEL-5 13.8 µM | NCI-H522 48 µM | COLO 205 > 100 µM | OVCAR-3 > 100 µM | ACHN 12.4 µM | SF-268 > 100 µM | 786-0 75.7 µM | SK-MEL-2 > 100 µM

Cn1c(=O)c(/N=N/c2c(=O)n(C)c(=O)n3c2[nH]c2ccccc23)c2[nH]c3ccccc3n2c1=O
inactive: OVCAR-4 > 100 µM | RXF 393 > 100 µM | HOP-62 57.1 µM | SW-620 > 100 µM | UACC-62 > 100 µM | Malme-3M > 100 µM | SK-MEL-5 > 100 µM | NCI-H522 66.5 µM | HL-60 > 100 µM | M14 > 100 µM | COLO 205 > 100 µM | OVCAR-3 > 100 µM | ACHN 80.9 µM | SF-268 46.2 µM | 786-0 41.9 µM | SK-MEL-2 > 100 µM

O=C(NNC(=O)/C(=C/c1cccc([N+](=O)[O-])c1)NC(=O)c1ccccc1)Nc1ccc(Cl)cc1
inactive: OVCAR-4 11.2 µM | RXF 393 11 µM | SN12C 14.5 µM | HOP-62 14.3 µM | SW-620 15.1 µM | UACC-62 14.5 µM | Malme-3M 14.2 µM | SK-MEL-5 13.1 µM | NCI-H522 12.3 µM | HL-60 6.5 µM | M14 12.8 µM | COLO 205 13.4 µM | OVCAR-3 11.6 µM | ACHN 14 µM | SF-268 15.1 µM | 786-0 14 µM | SK-MEL-2 12.2 µM

[O-][Cl+3]([O-])([O-])[O-].c1ccc(C[P+]2(c3ccccc3)CCCCC2)cc1
inactive: OVCAR-4 > 100 µM | RXF 393 > 100 µM | SN12C > 100 µM | HOP-62 > 100 µM | SW-620 > 100 µM | UACC-62 61.7 µM | Malme-3M > 100 µM | SK-MEL-5 28.7 µM | NCI-H522 34.5 µM | HL-60 29.4 µM | M14 > 100 µM | COLO 205 34 µM | OVCAR-3 73.1 µM | ACHN > 100 µM | 786-0 > 100 µM | SK-MEL-2 95.5 µM

O=C(Nc1cccc(C(F)(F)F)c1)C(=O)C1NC(=S)NC1=O (stereo unspecified)
inactive: OVCAR-4 > 100 µM | RXF 393 > 100 µM | SN12C > 100 µM | HOP-62 > 100 µM | SW-620 17.7 µM | UACC-62 > 100 µM | Malme-3M > 100 µM | SK-MEL-5 > 100 µM | HL-60 > 100 µM | M14 > 100 µM | COLO 205 39 µM | OVCAR-3 > 100 µM | ACHN > 100 µM | SF-268 > 100 µM | 786-0 > 100 µM | SK-MEL-2 > 100 µM

CCN1C[C@]2(C)CC[C@H](O)C34C1C(C[C@@H]32)[C@@]1(O)CC[C@H]2C[C@@H]4[C@@H]1[C@H]2O
inactive: OVCAR-4 > 100 µM | RXF 393 > 100 µM | SN12C > 100 µM | HOP-62 > 100 µM | SW-620 > 100 µM | UACC-62 > 100 µM | Malme-3M > 100 µM | SK-MEL-5 > 100 µM | NCI-H522 > 100 µM | HL-60 > 100 µM | M14 > 100 µM | COLO 205 > 100 µM | OVCAR-3 > 100 µM | ACHN > 100 µM | SF-268 > 100 µM | 786-0 > 100 µM | SK-MEL-2 > 100 µM

Cc1ccc(S(=O)(=O)NC(=O)NCCc2ccccc2)cc1
inactive: OVCAR-4 > 100 µM | RXF 393 77.6 µM | SN12C > 100 µM | HOP-62 > 100 µM | SW-620 > 100 µM | UACC-62 > 100 µM | Malme-3M > 100 µM | SK-MEL-5 > 100 µM | NCI-H522 73.8 µM | HL-60 74.1 µM | M14 > 100 µM | COLO 205 > 100 µM | OVCAR-3 > 100 µM | ACHN > 100 µM | SF-268 > 100 µM | 786-0 > 100 µM | SK-MEL-2 > 100 µM
